Test results: BindingDB's records for doi:10.1111/cbdd.12801 (2016)

Tests used:
Conditions in all cases: pH 7.4; 25 °C
Adenosine receptor A2a = Adenosine receptor A2a (Homo sapiens, UniProt P29274); assay: A2A Adenosine Receptor Binding Assay
Method: (§1) Aliquots of cell membranes (30 ug) were incubated at 25 °C for 90 min in 500 uL of binding buffer (50 mM Tris-HCl, 2 mm MgCl2, 2 units/mL ADA, pH 7.4) in the presence of 30 nM of [3H]NECA and six different concentrations of the tested compounds. Non-specific binding was determined in the presence of 100 uM R-PIA.

Adenosine receptor A3 = biological target: T1, Adenosine receptor A3 (Homo sapiens, UniProt P0DMS8); assay: A3 Adenosine Receptor Binding Assay
T1 sequence (P0DMS8 whole entry): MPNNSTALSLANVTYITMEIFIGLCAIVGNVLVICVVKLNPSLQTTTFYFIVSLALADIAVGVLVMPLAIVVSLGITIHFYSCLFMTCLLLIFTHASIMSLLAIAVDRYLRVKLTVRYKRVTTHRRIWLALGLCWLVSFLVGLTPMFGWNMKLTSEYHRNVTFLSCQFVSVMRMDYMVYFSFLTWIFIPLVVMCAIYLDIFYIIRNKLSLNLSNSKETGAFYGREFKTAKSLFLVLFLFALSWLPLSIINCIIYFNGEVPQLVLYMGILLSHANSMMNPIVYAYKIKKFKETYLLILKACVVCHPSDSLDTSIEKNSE
Method: as §1, with “(90” for “(30”, “180” for “90”, “5 mM” for “2 mm”, “MgCl2, 1 mM EDTA,” for “MgCl2,”, “nm” for “nM of”

Adenosine receptor A1 = biological target: T2, Adenosine receptor A1 (Homo sapiens, UniProt P30542); assay: A1 Adenosine Receptor Binding Assay
T2 sequence (P30542 whole entry): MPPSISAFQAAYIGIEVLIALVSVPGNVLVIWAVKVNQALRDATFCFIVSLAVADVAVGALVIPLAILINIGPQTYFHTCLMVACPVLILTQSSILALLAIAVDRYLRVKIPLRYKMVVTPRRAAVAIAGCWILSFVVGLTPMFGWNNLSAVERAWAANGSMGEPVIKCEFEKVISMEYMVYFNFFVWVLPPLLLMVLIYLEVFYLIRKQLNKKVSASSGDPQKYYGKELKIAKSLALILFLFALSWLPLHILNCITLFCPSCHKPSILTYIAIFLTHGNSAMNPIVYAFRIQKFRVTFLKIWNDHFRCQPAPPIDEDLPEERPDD
Method: Aliquots of cell membranes (30 ug proteins) were incubated at 25 °C for 180 min in 500 uL of binding buffer (50 mM Tris-HCl, 2 mM MgCl2, 2 units/mL ADA, pH 7.4) containing [3H]DPCPX (3 nM) and six different concentrations of the tested compounds. Non-specific binding was determined in the presence of 50 µM R-PIA. The dissociation constant (Kd) of [3H]DPCPX in human A1 AR CHO cell membranes was 3 nM.

Adenosine receptor A2a, sequence (P29274 whole entry): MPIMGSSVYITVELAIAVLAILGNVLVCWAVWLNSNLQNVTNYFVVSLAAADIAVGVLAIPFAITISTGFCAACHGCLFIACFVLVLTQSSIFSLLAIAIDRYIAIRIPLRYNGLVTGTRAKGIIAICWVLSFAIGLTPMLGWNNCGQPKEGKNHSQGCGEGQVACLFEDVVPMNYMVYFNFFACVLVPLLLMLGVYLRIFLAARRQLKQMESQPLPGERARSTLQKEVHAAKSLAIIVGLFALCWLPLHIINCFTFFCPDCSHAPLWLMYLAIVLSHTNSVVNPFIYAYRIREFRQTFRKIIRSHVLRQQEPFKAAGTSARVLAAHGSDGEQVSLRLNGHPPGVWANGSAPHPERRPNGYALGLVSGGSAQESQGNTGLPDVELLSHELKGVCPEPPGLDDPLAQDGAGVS

CCCOc1cc(N)nc(SCc2ccccc2)n1 [4-amino-6-alkyloxy-2-benzylthiopyrimidines (4)]
Ki (Adenosine receptor A2a): > 10000 nM | Ki (Adenosine receptor A3): > 10000 nM | EC50 (Adenosine receptor A1): 490 nM | Ki (Adenosine receptor A1): 1240 nM

CC(C)COc1cc(N)nc(SCc2ccccc2)n1 [4-amino-6-alkyloxy-2-benzylthiopyrimidines (5)]
Ki (Adenosine receptor A2a): > 10000 nM | Ki (Adenosine receptor A3): > 10000 nM | EC50 (Adenosine receptor A1): 870 nM | Ki (Adenosine receptor A1): 1940 nM

Nc1cc(OCc2ccccc2)nc(SCc2ccccc2)n1 [4-amino-6-alkyloxy-2-benzylthiopyrimidines (6)]
Ki (Adenosine receptor A2a): > 10000 nM | Ki (Adenosine receptor A3): > 10000 nM | Ki (Adenosine receptor A1): 1200 nM
